# Measurements from patent US11179372B2, “Isoxazoline solution containing vitamin E for use with sanitized drinking water” (Intervet Inc., priority 2015, dated 2021).
# Experiments:
# [1] = Tolerance of Fluralaner in laying hens (Example 1); format: in vivo, chickens; conditions: 0.5-2 mg/kg BW via medicated drinking water
# Experimental: Experimental animals were chickens, particularly laying hens of about 30 weeks old. These were housed in a standard poultry house. Apparently healthy birds were assigned in a random way to treatment groups kept separately, and labelled individually. The birds were kept under natural light, and were given several days for acclimatization; drinking water consumption in each group was measured on three days prior to administration to calculate the average daily water consumption. Medicated water was prepared by diluting a concentrated Fluralaner solution (10 mg/ml) to the desired concentration of Fluralaner in regular tap water (hypochlorite <0.5 ppm). […]
# The dose to be administered was calculated based on average body weights of each treatment group, measured one day before treatment (day −1, day 6). A concentrated Fluralaner solution was diluted in the drinking water to prepare medicated drinking water ready for consumption, via the following dosing regimen: • The volume of medicated water offered per group on day 0 (group D also on day 7) was approximately 50% of the calculated mean daily water intake measured previously in the respective group in order to ensure consumption of the full dose. • Once all medicated water was consumed the other 50% volume of the mean daily water intake was supplied as unmedicated tap water in the same drinker.
# [2] = Prevention of degradation by oxidizing sanitizer (hypochlorite) in medicated drinking water; format: physicochemical
# Experimental: The Fluralaner level was determined using UHPLC. The alpha-tocopherol used was alpha-tocopherol EP (Fluka).
# To prepare the test samples, the required amounts of Transcutol and Tween were measured, combined in a beaker at room temperature, and mixed magnetically. Next, when no protector was added, the required amount of Fluralaner was weighed, added, and mixed until complete dissolution, which usually required about 10 minutes, at 70% speed. […] The complete dissolution was verified visually. Next the density of the resulting solution was checked with a Densimeter, at 20° C.
# To test the capacity of the different protectors to prevent degradation of Fluralaner in medicated drinking water by an oxidising sanitizer, samples of the pharmaceutical composition as prepared above were diluted to different concentrations, and incubated with different amounts of hypochlorite. Concentrations of Fluralaner in medicated drinking water used were: 1, 5, and 10 μg/ml.
# The hypochlorite used was from a 13% sodium hypochlorite solution (Acros Organics), which was prepared into samples with a concentration of hypochlorite of: 0, 0.5, 2, 5, or 10 ppm, wherein 1 ppm equals 20 μM. Samples without hypochlorite served as positive controls. While the dilutions of hypochlorite were made in purified water, one additional sample at 5 ppm hypochlorite was prepared in standard tap water (Angers, France). Control samples were tested at day zero, all others were tested after an incubation for 7 days at 40° C./75% RH.
# The concentration of protector in the test sample was dependent of the dilution factor of the concentrated Fluralaner composition applied: 1:10,000, 1:2000, or 1:1000, respectively.
# [3] = Accelerated stability testing of pharmaceutical composition comprising a protector; format: physicochemical; conditions: with alpha-tocopherol; up to 8 months; 2-8° C., 30° C./65% RH, 40° C./75% RH, 50° C.
# Experimental: Similar to the experiments described in Example 3 above, where the effect of water quality on Fluralaner-containing medicated drinking water was tested; here samples of the pharmaceutical composition were tested for an effect of the addition of a protector, on their stability during prolonged storage.
# To test the long term stability of the pharmaceutical composition with a protector, some samples were stored under conditions of accelerated ageing. Samples of the pharmaceutical composition with or without one of the protectors, were filled out in portions of 7 gram each, in 10 ml glass vials, sealed with rubber stoppers, and stored under different conditions: 2-8° C.; 30° C./65% RH; 40° C./75% RH, and 50° C. […]
# [4] = test system: Northern fowl mite (O. sylviarum); assay: Efficacy of Fluralaner in medicated drinking water against Northern fowl mite infestation of laying hens; format: in vivo, Ornithonyssus sylviarum
# Experimental: No vitamin E was present in the concentrated Fluralaner solution used to prepare the medicated drinking water. The effectivity of an oral dosing regimen of Fluralaner was tested by administering medicated drinking water (via gavage) to laying hens, in 2 repeated doses of 0.25, 0.5 or 1.0 mg/kg body weight, administered 7 days apart, and challenging them with infestation by Northern fowl mites, via source birds and natural infestation. The birds were kept in separate pens, at 11 birds per pen. The statistical analysis of results was based on mite count from each bird in the study, using pen as a random factor in the model, and mite counts were performed and recorded for individual birds. Mite vent count reduction of the treated groups compared to the control group was the primary efficacy criterion.
# [5] = Conc. Fluralaner 1 μg/ml, hypochlorite 0 ppm, T = 0
# [6] = Conc. Fluralaner 1 μg/ml, hypochlorite 0 ppm, T = 7 d at 40° C./75% RH
# [7] = Conc. Fluralaner 1 μg/ml, hypochlorite 0.5 ppm, T = 7 d at 40° C./75% RH
# [8] = Conc. Fluralaner 1 μg/ml, hypochlorite 2 ppm, T = 7 d at 40° C./75% RH
# [9] = Conc. Fluralaner 1 μg/ml, hypochlorite 5 ppm (tapw.), T = 7 d at 40° C./75% RH
# [10] = Conc. Fluralaner 1 μg/ml, hypochlorite 5 ppm, T = 7 d at 40° C./75% RH
# [11] = Conc. Fluralaner 1 μg/ml, hypochlorite 10 ppm, T = 7 d at 40° C./75% RH
# [12] = Conc. Fluralaner 5 μg/ml, hypochlorite 0 ppm, T = 0
# [13] = Conc. Fluralaner 5 μg/ml, hypochlorite 0 ppm, T = 7 d at 40° C./75% RH
# [14] = Conc. Fluralaner 5 μg/ml, hypochlorite 0.5 ppm, T = 7 d at 40° C./75% RH
# [15] = Conc. Fluralaner 5 μg/ml, hypochlorite 2 ppm, T = 7 d at 40° C./75% RH
# [16] = Conc. Fluralaner 5 μg/ml, hypochlorite 5 ppm (tapw.), T = 7 d at 40° C./75% RH
# [17] = Conc. Fluralaner 5 μg/ml, hypochlorite 5 ppm, T = 7 d at 40° C./75% RH
# [18] = Conc. Fluralaner 5 μg/ml, hypochlorite 10 ppm, T = 7 d at 40° C./75% RH
# [19] = Conc. Fluralaner 10 μg/ml, hypochlorite 0 ppm, T = 0
# [20] = Conc. Fluralaner 10 μg/ml, hypochlorite 0 ppm, T = 7 d at 40° C./75% RH
# [21] = Conc. Fluralaner 10 μg/ml, hypochlorite 0.5 ppm, T = 7 d at 40° C./75% RH
# [22] = Conc. Fluralaner 10 μg/ml, hypochlorite 2 ppm, T = 7 d at 40° C./75% RH
# [23] = Conc. Fluralaner 10 μg/ml, hypochlorite 5 ppm (tapw.), T = 7 d at 40° C./75% RH
# [24] = Conc. Fluralaner 10 μg/ml, hypochlorite 5 ppm, T = 7 d at 40° C./75% RH
# [25] = Conc. Fluralaner 10 μg/ml, hypochlorite 10 ppm, T = 7 d at 40° C./75% RH
compound,measurement,setting,value
Cc1cc(C2=NOC(c3cc(Cl)cc(Cl)c3)(C(F)(F)F)C2)ccc1C(=O)NCC(=O)NCC(F)(F)F (centres unmarked) [Fluralaner],Tolerance in the hens,[1],well tolerated
same,Fluralaner content in medicated drinking water; alpha-tocopherol as protector,[2]; [5],0.91 µg/mL
same,Fluralaner content in medicated drinking water; no protector,[2]; [5],0.93 µg/mL
same,Fluralaner content in medicated drinking water; alpha-tocopherol as protector,[2]; [6],0.89 µg/mL
same,Fluralaner content in medicated drinking water; no protector,[2]; [6],0.92 µg/mL
same,Fluralaner content in medicated drinking water; alpha-tocopherol as protector,[2]; [7],0.91 µg/mL
same,Fluralaner content in medicated drinking water; no protector,[2]; [7],0.91 µg/mL
same,Fluralaner content in medicated drinking water; alpha-tocopherol as protector,[2]; [8],0.92 µg/mL
same,Fluralaner content in medicated drinking water; no protector,[2]; [8],0.91 µg/mL
same,Fluralaner content in medicated drinking water; alpha-tocopherol as protector,[2]; [9],0.86 µg/mL
same,Fluralaner content in medicated drinking water; no protector,[2]; [9],0.13 µg/mL
same,Fluralaner content in medicated drinking water; alpha-tocopherol as protector,[2]; [10],0.89 µg/mL
same,Fluralaner content in medicated drinking water; no protector,[2]; [10],0.29 µg/mL
same,Fluralaner content in medicated drinking water; alpha-tocopherol as protector,[2]; [11],0.05 µg/mL
same,Fluralaner content in medicated drinking water; no protector,[2]; [11],<LoQ
same,Fluralaner content in medicated drinking water; alpha-tocopherol as protector,[2]; [12],5.52 µg/mL
same,Fluralaner content in medicated drinking water; no protector,[2]; [12],5.50 µg/mL
same,Fluralaner content in medicated drinking water; alpha-tocopherol as protector,[2]; [13],5.45 µg/mL
same,Fluralaner content in medicated drinking water; no protector,[2]; [13],5.51 µg/mL
same,Fluralaner content in medicated drinking water; alpha-tocopherol as protector,[2]; [14],5.52 µg/mL
same,Fluralaner content in medicated drinking water; no protector,[2]; [14],5.52 µg/mL
same,Fluralaner content in medicated drinking water; alpha-tocopherol as protector,[2]; [15],5.52 µg/mL
same,Fluralaner content in medicated drinking water; no protector,[2]; [15],5.50 µg/mL
same,Fluralaner content in medicated drinking water; alpha-tocopherol as protector,[2]; [16],5.42 µg/mL
same,Fluralaner content in medicated drinking water; no protector,[2]; [16],4.43 µg/mL
same,Fluralaner content in medicated drinking water; alpha-tocopherol as protector,[2]; [17],5.49 µg/mL
same,Fluralaner content in medicated drinking water; no protector,[2]; [17],5.31 µg/mL
same,Fluralaner content in medicated drinking water; alpha-tocopherol as protector,[2]; [18],5.56 µg/mL
same,Fluralaner content in medicated drinking water; no protector,[2]; [18],1.54 µg/mL
same,Fluralaner content in medicated drinking water; alpha-tocopherol as protector,[2]; [19],10.14 µg/mL
same,Fluralaner content in medicated drinking water; no protector,[2]; [19],10.10 µg/mL
same,Fluralaner content in medicated drinking water; alpha-tocopherol as protector,[2]; [20],10.01 µg/mL
same,Fluralaner content in medicated drinking water; no protector,[2]; [20],10.07 µg/mL
same,Fluralaner content in medicated drinking water; alpha-tocopherol as protector,[2]; [21],10.10 µg/mL
same,Fluralaner content in medicated drinking water; no protector,[2]; [21],10.03 µg/mL
same,Fluralaner content in medicated drinking water; alpha-tocopherol as protector,[2]; [22],10.10 µg/mL
same,Fluralaner content in medicated drinking water; no protector,[2]; [22],10.03 µg/mL
same,Fluralaner content in medicated drinking water; alpha-tocopherol as protector,[2]; [23],9.94 µg/mL
same,Fluralaner content in medicated drinking water; no protector,[2]; [23],8.69 µg/mL
same,Fluralaner content in medicated drinking water; alpha-tocopherol as protector,[2]; [24],9.99 µg/mL
same,Fluralaner content in medicated drinking water; no protector,[2]; [24],9.97 µg/mL
same,Fluralaner content in medicated drinking water; alpha-tocopherol as protector,[2]; [25],10.05 µg/mL
same,Fluralaner content in medicated drinking water; no protector,[2]; [25],5.05 µg/mL
same,Level of Fluralaner in pharmaceutical composition on storage,[3],no significant reduction
same,Duration of efficacy after first treatment administration,"[4]; 0.25 mg/kg BW dose group (2 doses, 7 days apart)",up to 19 days
same,Duration of efficacy after first treatment administration,"[4]; 0.5 mg/kg BW dose group (2 doses, 7 days apart)",≤ 22 days
same,Duration of efficacy after first treatment administration,"[4]; 1.0 mg/kg BW dose group (2 doses, 7 days apart)",≤ 22 days
same,Efficacy against O. sylviarum,"[4]; 2 single doses of 0.25, 0.5, or 1 mg/kg BW, 7 days apart, oral",significant efficacy
same,"Reductions in mite vent counts, onset","[4]; all treated groups, beginning at day 1",statistically significant reductions
same,Efficacy against Northern fowl mites (reduction in mite vent count),"[4]; all treated groups, for at least 19 days, untreated source birds in same pen",> 90%
